Results from patent US20120315654A1, “COMPOSITIONS AND METHODS FOR DETECTING CARDIOTOXICITY” (DUKE UNIVERSITY, priority 2011, published 2012).

How the values were obtained:
Cr transporter (CrT) = biological target: T1, Cr transporter (CrT) (Rattus norvegicus, UniProt P28570); assay: 14C-Cr transport in rat neonatal cardiomyocytes (RNCM) after DOX incubation; type: cell-based; conditions: 100 nmol/L DOX
T1 construct: measuring ^14C—Cr uptake in primary RNCMs; endogenous in cells; host or cells: primary rat neonatal cardiomyocytes (RNCM)
T1 sequence (P28570 1-635): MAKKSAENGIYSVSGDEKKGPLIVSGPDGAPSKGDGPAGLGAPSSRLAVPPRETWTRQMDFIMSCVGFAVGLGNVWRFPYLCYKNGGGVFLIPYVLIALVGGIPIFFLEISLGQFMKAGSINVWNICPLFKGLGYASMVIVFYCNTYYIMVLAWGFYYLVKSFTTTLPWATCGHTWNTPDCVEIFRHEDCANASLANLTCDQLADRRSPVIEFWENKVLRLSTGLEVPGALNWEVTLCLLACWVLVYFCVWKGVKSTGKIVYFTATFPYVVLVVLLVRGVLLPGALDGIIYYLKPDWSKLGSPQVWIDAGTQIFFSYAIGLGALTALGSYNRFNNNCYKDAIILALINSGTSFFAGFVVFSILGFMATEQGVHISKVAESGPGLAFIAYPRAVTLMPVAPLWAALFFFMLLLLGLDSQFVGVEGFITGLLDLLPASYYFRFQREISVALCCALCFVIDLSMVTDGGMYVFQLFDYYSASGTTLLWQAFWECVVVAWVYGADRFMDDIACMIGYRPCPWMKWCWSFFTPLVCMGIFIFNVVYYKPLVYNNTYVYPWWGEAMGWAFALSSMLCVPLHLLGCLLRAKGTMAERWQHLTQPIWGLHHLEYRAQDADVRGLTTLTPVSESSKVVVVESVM
Experimental: Cells were plated on tissue culture dishes pre-coated with gelatin/fibronectin and allowed to grow in M199 media (INVITROGEN, Carlsbad, Calif.) containing 2% serum before experimentation. All animals were treated according to protocols approved by Duke University's Institutional Animal Care and Use Committee. HL-1 cells (passages 50 to 75), were plated onto fibronectin/gelatin-coated plates and cultured in CLAYCOMB media (SIGMA, St. Louis, Mo.) supplemented with 10% fetal bovine serum, 100 units/ml penicillin, 100 μg/ml streptomycin, 0.1 mM norepinephrine, and 2 mmol/L L-glutamine, as described previously (White S. M., et al., Am J Physiol Heart Circ Physiol 286: H823-829, 2004). The cultures were maintained in a humidified atmosphere of 5% CO2 at 37° C.
Cr transport assays were performed after growth in control media for 0, 4, 12, 24 or 48 hrs.
Cells used for Cr transport assays were cultured in 24-well plates coated with fibronectin and gelatin. […]
For assays that measured Cr transport kinetics, the final Cr content in the uptake buffer ranged from 5 to 305 μmol/L. Uptake was terminated by aspiration of the radiolabeled solution, followed by 3 washes with ice-cold choline buffer. […] Cr transport was normalized to the protein concentration measured using the bicinchoninic acid (BCA) protein assay (PIERCE BIOTECHNOLOGY, Rockford, Ill.). […]

RNCM [1] = assay: Caspase 3/7 apoptosis assay in RNCM; type: cell-based, rat; conditions: 100 nmol/L DOX, up to 48 hrs
Experimental: (§1) Apoptosis was measured using PROMEGA's CASPASE-GLO 3/7 ASSAY SYSTEM (PROMEGA). Briefly, attached cells in a single 24-well plate were washed 3 times with ice-cold PBS and resuspended in 500 μl of 1% TRITON-X100; 10% glycerol; 2 mmol/L EDTA; 137 mmol/L NaCl; and 20 mmol/L Tris, pH 8.0. A mixture of 25 μL of lysate and 25 μL of caspase 3/7-assay reagent was prepared, and sequential luminescent readings were taken every 15 min for 4 hrs. Peak signal readings were normalized to protein content and plotted.

HL-1 cells [2] = assay: Caspase 3/7 apoptosis assay in HL-1 cells; type: cell-based, murine; conditions: HL-1, 100 nmol/L DOX, up to 48 hrs
Experimental: as §1

RNCM [3] = assay: LDH release cytotoxicity assay in RNCM; type: cell-based, rat
Experimental: (§2) Toxicity was assessed by quantifying the amount of lactate dehydrogenase (LDH) present in the culture media using PROMEGA's CYTOTOX96 NON-RADIOACTIVE ASSAY (PROMEGA, Madison, Wis.). Maximum cytotoxicity was determined by measuring the amount of LDH released in cells incubated with the kit's lysis buffer. The percentage of LDH released after DOX treatment was compared with that of controls.

HL-1 cells [4] = assay: LDH release cytotoxicity assay in HL-1 cells; type: cell-based, murine
Experimental: as §2

[5] = cited from earlier work
HL-1 cells [6] = assay: Quantification of Cr and high-energy phosphates in HL-1 extracts by LC-MS/MS; conditions: HL-1, 100 nmol/L DOX, 24 hrs

For `COc1cccc2c1C(=O)c1c(O)c3c(c(O)c1C2=O)C[C@@](O)(C(=O)CO)C[C@@H]3O[C@H]1C[C@H](N)[C@H](O)[C@H](C)O1` [DOX, Doxorubicin], the “Decrease in Cr uptake” value (Cr transporter (CrT); 32 hrs before the 36 hrs point (FIG. 1A)) was 37%, the “Cr transport (14C-Cr uptake)” value (Cr transporter (CrT); within 2-4 hrs of exposure, vs control media) was “decreased significantly” and the “Apoptosis (caspase 3/7 activation)” value (RNCM [1]) was “No increase”. The “Apoptosis (caspase 3/7 activation)” value (HL-1 cells [2]) was “No increase”, the LDH release (RNCM [3]; 50 nmol/L DOX, through 48 hrs) was “not significantly elevated” and the “Increase in LDH release compared with control” value (RNCM [3]; 100 nmol/L DOX, 36 hrs) was 7%. For the same compound, the LDH release (HL-1 cells [4]; HL-1, 50 nmol/L DOX, through 48 hrs) was “not significantly elevated”, the “Increase in LDH release compared with controls” value (HL-1 cells [4]; HL-1, 100 nmol/L DOX, 24 hrs) was “approximately 10%” and the “Average steady-state concentration typically measured in patient plasma” value [5] was 100 nmol/L. The ADP (HL-1 cells [6]) was 0.50 ± 0.07 μmols/mg prot, the AMP (HL-1 cells [6]) was 0.26 ± 0.08 μmols/mg prot and the ATP (HL-1 cells [6]) was 0.60 ± 0.15 μmols/mg prot. For the same compound, the Cr (HL-1 cells [6]) was 23.01 ± 7.92 μmols/mg prot and the PCr (HL-1 cells [6]) was 5.94 ± 0.12 μmols/mg prot.
